{"source": "patent US20040057908A1", "about": "“Oral compositions and use thereof” (priority 2003, published 2004)", "key": {"[1]": {"tested_on": "Streptococcus mutans GS-5", "test": "MIC and MBC, broth dilution", "assay_type": "cell-based", "experimental": "(§1) The minimum inhibitory concentration (MIC) and minimum bactericidal concentration (MBC) were determined for each test compound according to the National Committee for Clinical Laboratory Standards guidelines (Tentative standard M26-T, 1992; NCCLS Publication No. M7-A5, 2000) and Koo et al. (2000b). The broth microdilution and macrodilution methods (in TSB) were used for the antibacterial tests. The starting inoculum was 5×10^5 CFU/ml and the concentrations of test compounds ranged from 15.6 to 500 μM (two-fold dilutions). The MICs and MBCs were determined in quadruplicate in at least 3 different experiments."}, "[2]": {"tested_on": "Streptococcus mutans UA 159", "test": "MIC and MBC, broth dilution", "assay_type": "cell-based", "experimental": "as §1"}, "[3]": {"tested_on": "Streptococcus sobrinus 6715", "test": "MIC and MBC, broth dilution", "assay_type": "cell-based", "conditions": "Streptococcus sobrinus 6715", "experimental": "as §1"}, "[4]": {"tested_on": "Mutans Streptococci Strains", "test": "MIC and MBC, broth dilution, all strains stated together", "assay_type": "cell-based, S. mutans (GS-5 and UA159) and S. sobrinus 6715", "experimental": "as §1"}, "GTF B [5]": {"biological_target": "T1, GTF B (Streptococcus mutans serotype c, UniProt P08987)", "T1 construct": "made in house; host or cells: Streptococcus milleri KSB8 (culture supernatant)", "T1 sequence (P08987 35-1476)": "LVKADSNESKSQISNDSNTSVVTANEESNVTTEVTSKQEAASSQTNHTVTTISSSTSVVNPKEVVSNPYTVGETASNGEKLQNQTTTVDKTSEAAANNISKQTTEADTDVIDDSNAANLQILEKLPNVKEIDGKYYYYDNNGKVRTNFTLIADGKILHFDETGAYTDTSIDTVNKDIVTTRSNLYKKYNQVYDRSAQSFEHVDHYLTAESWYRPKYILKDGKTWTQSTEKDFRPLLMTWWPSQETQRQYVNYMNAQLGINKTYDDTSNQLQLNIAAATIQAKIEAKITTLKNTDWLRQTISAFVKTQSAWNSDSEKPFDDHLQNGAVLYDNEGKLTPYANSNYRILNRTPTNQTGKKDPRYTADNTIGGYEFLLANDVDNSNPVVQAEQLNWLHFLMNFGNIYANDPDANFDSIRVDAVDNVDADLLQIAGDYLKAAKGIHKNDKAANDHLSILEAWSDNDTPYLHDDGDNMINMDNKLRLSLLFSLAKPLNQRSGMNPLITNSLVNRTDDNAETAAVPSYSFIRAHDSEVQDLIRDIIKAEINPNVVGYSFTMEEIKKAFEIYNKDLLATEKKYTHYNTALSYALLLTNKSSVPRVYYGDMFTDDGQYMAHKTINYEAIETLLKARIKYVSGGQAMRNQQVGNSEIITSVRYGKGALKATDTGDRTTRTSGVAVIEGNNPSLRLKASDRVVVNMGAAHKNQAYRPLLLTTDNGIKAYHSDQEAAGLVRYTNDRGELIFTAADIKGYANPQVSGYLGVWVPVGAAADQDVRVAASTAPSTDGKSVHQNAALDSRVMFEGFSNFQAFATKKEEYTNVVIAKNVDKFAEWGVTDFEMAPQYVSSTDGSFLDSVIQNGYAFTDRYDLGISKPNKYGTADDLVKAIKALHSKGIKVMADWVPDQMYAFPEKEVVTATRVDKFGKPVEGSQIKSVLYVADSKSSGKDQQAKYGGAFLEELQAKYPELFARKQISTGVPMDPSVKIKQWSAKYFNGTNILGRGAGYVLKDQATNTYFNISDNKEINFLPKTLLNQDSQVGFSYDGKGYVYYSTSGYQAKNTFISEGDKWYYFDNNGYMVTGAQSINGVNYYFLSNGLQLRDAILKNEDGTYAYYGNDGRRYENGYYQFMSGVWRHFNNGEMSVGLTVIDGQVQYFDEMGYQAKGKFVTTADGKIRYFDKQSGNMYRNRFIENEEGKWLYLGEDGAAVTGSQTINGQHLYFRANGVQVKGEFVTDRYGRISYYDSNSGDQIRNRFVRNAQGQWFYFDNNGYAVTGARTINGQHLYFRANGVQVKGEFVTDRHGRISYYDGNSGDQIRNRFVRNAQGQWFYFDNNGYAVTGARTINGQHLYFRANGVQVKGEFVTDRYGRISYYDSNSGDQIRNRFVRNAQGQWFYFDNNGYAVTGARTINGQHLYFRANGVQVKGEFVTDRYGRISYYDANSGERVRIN", "test": "GTF activity in solution, GTF B", "assay_type": "biochemical", "conditions": "read-out: GTF B sol. % of Inhib.", "experimental": "(§2) Glucosyltransferase activity was measured by the incorporation of [^14C-glucose] from labeled sucrose (NEN Research Products, Boston, Mass.) into glucans (Germaine et al., 1974; Venkitaraman et al., 1995). The GTF enzyme added to each sample for all assays was equivalent to the amount required to incorporate 1.0-1.5 μmol of glucose over the four hours reaction (1.0-1.5 units).\n(§3) For solution assays, purified GTF B, C, D and Ss were mixed with a two-fold dilution series of the test compounds (concentration ranging from 125 to 500 μM) and incubated with [^14C-glucose]-sucrose substrate (0.2 μCi/ml) (200.0 mmol/l sucrose, 40 μmol/l dextran 9000, 0.02% sodium azide in adsorption buffer—50 mM KCl, 1.0 mM KPO4, 1.0 mM CaCl2, 0.1 mM MgCl2−pH=6.5) to reach a final concentration of 100 mmol/l sucrose (200 μl final volume). For the control, the same reaction was carried out, where ethanol:DMSO (final concentration of 7.5% and 1.25%, v/v) or ethanol (final concentration of 5%, v/v) replaced the test agent solutions. The samples were incubated 37° C. with rocking for 4 h. After incubation, ice-cold ethanol (1.0 ml) was added and the samples were stored for 18 h, 4° C. for precipitation of glucans. Radiolabeled glucan was determined by scintillation counting (Germaine et al., 1974; Venkitaraman et al., 1995)."}, "GTF B [6]": {"biological_target": "T1, GTF B", "test": "GTF activity adsorbed onto saliva-coated hydroxyapatite (sHA) surface, GTF B", "assay_type": "biochemical", "conditions": "read-out: GTF B surf. % of Inhib.", "experimental": "as §2\n(§4) For surface assays, the GTFs were adsorbed to hydroxyapatite beads coated with clarified whole saliva (free of GTF activity), as detailed elsewhere (Koo et al., 2000c; Schilling and Bowen, 1988, Venkitaraman et al., 1995). The saliva-coated hydroxyapatite (sHA) beads were exposed to sufficient enzyme to saturate the surface as determined experimentally. Following the adsorption of the enzyme, the beads were washed 3 times with buffer to remove the loosely bound material and exposed to 300 μl of the two-fold dilution series of test compounds (or control) for 30 min. at the same concentrations described above. The beads were washed and exposed to 300 μl [^14C-glucose]-sucrose substrate (100.0 mmol/l sucrose, final concentration). The radiolabeled glucan formed was collected and quantified by scintillation counting (Germaine et al., 1974; Venkitaraman et al., 1995). All the solution and surface assays were done in quadruplicate in at least 3 different experiments."}, "GTF C [7]": {"biological_target": "T2, GTF C (Streptococcus mutans serotype c, UniProt P13470)", "T2 construct": "The supernatant was carefully collected as the source of GTF C; made in house; host or cells: Streptococcus mutans WHB 410 (endogenous gtfC; urea/Triton extract of washed cells, hydroxyapatite chromatography)", "T2 sequence (P13470 35-1455)": "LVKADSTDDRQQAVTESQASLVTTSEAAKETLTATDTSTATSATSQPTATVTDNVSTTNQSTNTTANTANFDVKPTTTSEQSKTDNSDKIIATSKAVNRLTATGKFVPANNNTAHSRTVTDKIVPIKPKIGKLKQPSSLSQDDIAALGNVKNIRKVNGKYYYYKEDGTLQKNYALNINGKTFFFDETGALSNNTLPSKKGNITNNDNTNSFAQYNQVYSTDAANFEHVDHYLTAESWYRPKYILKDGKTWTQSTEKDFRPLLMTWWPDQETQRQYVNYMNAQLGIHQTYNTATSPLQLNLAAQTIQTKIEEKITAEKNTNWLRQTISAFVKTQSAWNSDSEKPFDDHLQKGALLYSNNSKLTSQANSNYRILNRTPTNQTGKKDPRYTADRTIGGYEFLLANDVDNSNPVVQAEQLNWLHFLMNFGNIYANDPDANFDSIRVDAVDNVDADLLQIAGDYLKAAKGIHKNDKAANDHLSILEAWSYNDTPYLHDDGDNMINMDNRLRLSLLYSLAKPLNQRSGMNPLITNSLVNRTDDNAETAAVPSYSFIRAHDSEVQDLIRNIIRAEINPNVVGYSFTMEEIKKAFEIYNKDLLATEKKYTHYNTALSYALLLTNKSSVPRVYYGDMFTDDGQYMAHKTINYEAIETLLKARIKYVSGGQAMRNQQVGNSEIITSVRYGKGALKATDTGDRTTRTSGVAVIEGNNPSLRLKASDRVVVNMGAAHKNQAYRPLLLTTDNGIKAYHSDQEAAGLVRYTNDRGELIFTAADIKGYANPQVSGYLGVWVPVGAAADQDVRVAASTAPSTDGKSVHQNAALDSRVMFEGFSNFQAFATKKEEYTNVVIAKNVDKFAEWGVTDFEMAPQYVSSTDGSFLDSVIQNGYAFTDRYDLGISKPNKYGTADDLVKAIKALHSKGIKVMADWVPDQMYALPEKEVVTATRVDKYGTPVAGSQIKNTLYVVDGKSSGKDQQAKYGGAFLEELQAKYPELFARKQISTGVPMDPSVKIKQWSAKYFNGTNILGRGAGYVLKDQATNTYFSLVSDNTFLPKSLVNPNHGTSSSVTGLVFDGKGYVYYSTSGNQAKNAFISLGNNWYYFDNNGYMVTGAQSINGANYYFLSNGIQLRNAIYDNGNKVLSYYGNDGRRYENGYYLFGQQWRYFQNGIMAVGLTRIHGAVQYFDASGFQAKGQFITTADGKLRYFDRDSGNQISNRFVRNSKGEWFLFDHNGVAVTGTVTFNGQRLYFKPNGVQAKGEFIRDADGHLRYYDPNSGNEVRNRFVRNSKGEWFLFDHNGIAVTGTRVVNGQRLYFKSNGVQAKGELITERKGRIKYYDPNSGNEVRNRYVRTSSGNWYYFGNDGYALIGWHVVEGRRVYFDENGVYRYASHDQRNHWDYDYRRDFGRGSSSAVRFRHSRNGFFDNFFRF", "test": "GTF activity in solution, GTF C", "assay_type": "biochemical", "conditions": "read-out: GTF C sol. % of Inhib.", "experimental": "as §2, §3"}, "GTF C [8]": {"biological_target": "T2, GTF C", "test": "GTF activity adsorbed onto sHA surface, GTF C", "assay_type": "biochemical", "conditions": "read-out: GTF C surf. % of Inhib.", "experimental": "as §2, §4"}, "GTF D [9]": {"biological_target": "T3, GTF D (Streptococcus mutans serotype c, UniProt P49331)", "T3 construct": "made in house; host or cells: Streptococcus milleri NH5 (culture supernatant)", "T3 sequence (P49331 whole entry)": "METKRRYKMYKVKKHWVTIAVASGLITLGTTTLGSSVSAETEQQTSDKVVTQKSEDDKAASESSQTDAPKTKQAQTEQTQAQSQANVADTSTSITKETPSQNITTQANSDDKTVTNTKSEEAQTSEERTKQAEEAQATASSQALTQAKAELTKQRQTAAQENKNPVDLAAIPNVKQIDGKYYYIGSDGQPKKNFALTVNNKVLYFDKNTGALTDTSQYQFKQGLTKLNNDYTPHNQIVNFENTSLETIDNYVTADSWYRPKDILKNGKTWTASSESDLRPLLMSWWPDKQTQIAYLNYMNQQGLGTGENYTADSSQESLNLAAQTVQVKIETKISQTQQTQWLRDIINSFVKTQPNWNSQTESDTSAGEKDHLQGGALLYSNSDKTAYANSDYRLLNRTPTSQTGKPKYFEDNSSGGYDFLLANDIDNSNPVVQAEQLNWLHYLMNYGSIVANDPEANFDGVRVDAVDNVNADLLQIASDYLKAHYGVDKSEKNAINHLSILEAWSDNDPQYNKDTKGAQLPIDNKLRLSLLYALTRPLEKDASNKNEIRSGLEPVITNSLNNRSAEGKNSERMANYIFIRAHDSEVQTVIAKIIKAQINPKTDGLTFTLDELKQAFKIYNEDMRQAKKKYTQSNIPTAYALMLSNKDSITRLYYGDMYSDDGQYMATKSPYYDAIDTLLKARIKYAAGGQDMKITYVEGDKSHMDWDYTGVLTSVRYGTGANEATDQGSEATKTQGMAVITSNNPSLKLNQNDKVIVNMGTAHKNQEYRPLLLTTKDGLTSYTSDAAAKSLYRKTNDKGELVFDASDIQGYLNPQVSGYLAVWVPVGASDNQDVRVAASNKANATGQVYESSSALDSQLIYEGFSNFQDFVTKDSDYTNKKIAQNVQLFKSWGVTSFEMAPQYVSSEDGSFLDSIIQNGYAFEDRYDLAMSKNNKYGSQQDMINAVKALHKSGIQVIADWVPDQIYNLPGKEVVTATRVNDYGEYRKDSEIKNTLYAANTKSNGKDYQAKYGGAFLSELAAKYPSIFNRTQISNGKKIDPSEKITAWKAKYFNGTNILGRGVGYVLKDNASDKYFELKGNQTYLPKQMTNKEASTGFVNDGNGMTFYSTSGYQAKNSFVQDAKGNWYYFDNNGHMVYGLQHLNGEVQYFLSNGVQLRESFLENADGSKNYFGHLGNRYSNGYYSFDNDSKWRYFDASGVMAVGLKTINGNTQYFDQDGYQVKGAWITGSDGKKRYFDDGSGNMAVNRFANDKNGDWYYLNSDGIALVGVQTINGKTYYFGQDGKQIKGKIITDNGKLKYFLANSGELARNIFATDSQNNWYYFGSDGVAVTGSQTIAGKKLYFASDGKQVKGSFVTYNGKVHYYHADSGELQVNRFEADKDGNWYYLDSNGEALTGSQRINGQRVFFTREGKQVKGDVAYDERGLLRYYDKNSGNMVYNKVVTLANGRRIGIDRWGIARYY", "test": "GTF activity in solution, GTF D", "assay_type": "biochemical", "conditions": "read-out: GTF D sol. % of Inhib.", "experimental": "as §2, §3"}, "GTF D [10]": {"biological_target": "T3, GTF D", "test": "GTF activity adsorbed onto sHA surface, GTF D", "assay_type": "biochemical", "conditions": "read-out: GTF D surf. % of Inhib.", "experimental": "as §2, §4"}, "GTF Ss [11]": {"biological_target": "T4, GTF Ss (Streptococcus sanguinis, UniProt A3CLJ9)", "test": "GTF activity in solution, GTF Ss", "assay_type": "biochemical, S. sanguinis", "conditions": "read-out: GTF Ss sol. % of Inhib.", "experimental": "as §2, §3"}, "GTF Ss [12]": {"biological_target": "T4, GTF Ss", "test": "GTF activity adsorbed onto sHA surface, GTF Ss", "assay_type": "biochemical, S. sanguinis", "conditions": "read-out: GTF Ss surf. % of Inhib.", "experimental": "as §2, §4"}, "[13]": {"conditions": "Streptococcus mutans, all strains tested (S. mutans GS-5, UA159, S. sobrinus 6715), read-out: MIC"}}, "note": "Read-outs that look alike come from different tables or passages of the source.", "data": [{"smiles": "O=c1cc(-c2ccccc2)oc2cc(O)c(O)c(O)c12", "note": "[Baicalein]", "values": [{"measurement": "MBC", "setting": "[1]", "value": ">500", "unit": "µM"}, {"measurement": "MIC", "setting": "[1]", "value": 500, "unit": "µM"}, {"measurement": "MBC", "setting": "[2]", "value": ">500", "unit": "µM"}, {"measurement": "MIC", "setting": "[2]", "value": 500, "unit": "µM"}, {"measurement": "MBC", "setting": "[3]", "value": ">500", "unit": "µM"}, {"measurement": "MIC", "setting": "[3]", "value": 500, "unit": "µM"}, {"measurement": "MIC", "setting": "[4]; all strains tested (S. mutans GS-5, UA159, S. sobrinus 6715), read-out: MIC", "value": 500, "unit": "µM"}]}, {"smiles": "O=C(O)c1ccccc1", "note": "[Benzoic acid]", "values": [{"measurement": "MIC", "setting": "[4]; Streptococcus mutans", "value": "> 500", "unit": "µM"}]}, {"smiles": "O=C(O)/C=C/c1ccc(O)c(O)c1", "note": "[Caffeic acid]", "values": [{"measurement": "MIC", "setting": "[4]; [13]", "value": "> 500", "unit": "µM"}]}, {"smiles": "COc1cc(/C=C/C(=O)O)ccc1O", "note": "[Ferulic acid]", "values": [{"measurement": "MIC", "setting": "[4]; [13]", "value": "> 500", "unit": "µM"}]}, {"smiles": "O=c1c(O)c(-c2ccc(O)cc2)oc2cc(O)cc(O)c12", "note": "[Kaempferol]", "values": [{"measurement": "inhibition at 125 µM", "setting": "GTF B [5]", "value": 32.4, "unit": "%"}, {"measurement": "inhibition at 250 µM", "setting": "GTF B [5]", "value": 80.6, "unit": "%"}, {"measurement": "inhibition at 500 µM", "setting": "GTF B [5]", "value": 90.4, "unit": "%"}, {"measurement": "inhibition at 125 µM", "setting": "GTF B [6]", "value": 9.9, "unit": "%"}, {"measurement": "inhibition at 250 µM", "setting": "GTF B [6]", "value": 27.8, "unit": "%"}, {"measurement": "inhibition at 500 µM", "setting": "GTF B [6]", "value": 40.2, "unit": "%"}, {"measurement": "inhibition at 125 µM", "setting": "GTF C [7]", "value": 41.9, "unit": "%"}, {"measurement": "inhibition at 250 µM", "setting": "GTF C [7]", "value": 82.2, "unit": "%"}, {"measurement": "inhibition at 500 µM", "setting": "GTF C [7]", "value": 90.2, "unit": "%"}, {"measurement": "inhibition at 125 µM", "setting": "GTF C [8]", "value": 24.2, "unit": "%"}, {"measurement": "inhibition at 250 µM", "setting": "GTF C [8]", "value": 25.8, "unit": "%"}, {"measurement": "inhibition at 500 µM", "setting": "GTF C [8]", "value": 35.2, "unit": "%"}, {"measurement": "inhibition at 125 µM", "setting": "GTF D [9]", "value": 39.1, "unit": "%"}, {"measurement": "inhibition at 250 µM", "setting": "GTF D [9]", "value": 76.7, "unit": "%"}, {"measurement": "inhibition at 500 µM", "setting": "GTF D [9]", "value": 86.7, "unit": "%"}, {"measurement": "inhibition at 125 µM", "setting": "GTF D [10]", "value": 20.4, "unit": "%"}, {"measurement": "inhibition at 250 µM", "setting": "GTF D [10]", "value": 23.5, "unit": "%"}, {"measurement": "inhibition at 500 µM", "setting": "GTF D [10]", "value": 28.5, "unit": "%"}, {"measurement": "inhibition at 125 µM", "setting": "GTF Ss [11]", "value": 37.6, "unit": "%"}, {"measurement": "inhibition at 250 µM", "setting": "GTF Ss [11]", "value": 43.1, "unit": "%"}, {"measurement": "inhibition at 500 µM", "setting": "GTF Ss [11]", "value": 88.9, "unit": "%"}, {"measurement": "inhibition at 125 µM", "setting": "GTF Ss [12]", "value": 9.7, "unit": "%"}, {"measurement": "inhibition at 250 µM", "setting": "GTF Ss [12]", "value": 8.8, "unit": "%"}, {"measurement": "inhibition at 500 µM", "setting": "GTF Ss [12]", "value": 19.2, "unit": "%"}, {"measurement": "MIC", "setting": "[4]; Streptococcus mutans", "value": "> 500", "unit": "µM"}]}, {"smiles": "O=c1cc(-c2ccc(O)c(O)c2)oc2cc(O)cc(O)c12", "note": "[Luteolin]", "values": [{"measurement": "MIC", "setting": "[4]; [13]", "value": "> 500", "unit": "µM"}]}]}
